# Measured values: article PMC10377586 (Biomolecules, 2023)
# What was measured:
# SH-SY5Y cells [1] = assay: Neuroprotection against H2O2-induced toxicity, LDH assay; format: cell-based; settings: 300 µM hydrogen peroxide, compounds at 10 or 50 µM
# Procedure: (§1) For neuroprotection studies, a cellular model of neuroblastoma SH-SY5Y cells exposed to hydrogen peroxide was applied. Lactate dehydrogenase (LDH) release was used as a measure of cell death. First, the compounds (11a, 11c, 12, 13, 20a, 21, and 22) were tested for their possible intrinsic neurotoxicity to the SH-SY5Y cell line (see Supplementary Figure S1). […] All other compounds were tested for cytoprotective effects against H2O2-induced toxicity in SH-SY5Y cells.
# (§2) Neuroblastoma SH-SY5Y cells were seeded at the density of 20,000 cells per well to 96-well plates one day before the experiment. Twelve hours prior to start of the assay, cell culture medium was replaced with the fresh portion of reduced serum (1%) medium. Tested compounds were added to the cells at the final concentration of 10 or 50 µM in 1% DMSO. In the neuroprotection studies, hydrogen peroxide, at a final concertation of 300 µM, was pipetted to the assay plate 1 h after tested compounds addition. Cell death, represented by the release of LDH through the perforated cell membrane, was measured following 14 h incubation of cells with the compounds and hydrogen peroxide. LDH levels in cell culture medium were determined using fluorometric CytoTox-ONE Homogeneous Membrane Integrity Assay (Promega Corporation, Madison, WI, USA), according to manufacturer’s instructions.
# Figure 3 The ability of tested compounds to reduce the cytotoxicity of 300 μM hydrogen peroxide (HP) on dopaminergic neuronal cells (SH-SY5Y) as judged by LDH assay. Data represent the mean of two experiments performed in triplicate. Results are presented as percent of cytotoxicity induced by 300 µM hydrogen peroxide (HP) ± SEM. NT–vehicle control (1% DMSO).
# rat A2A (rA2A) ARs = biological target: T1, rat A2A (rA2A) ARs (Rattus norvegicus, UniProt P30543); assay: Radioligand binding [3H]MSX-2, rat brain striatal membranes; settings: read-out: rA2A [3H]MSX-2 % inhibition ± SEM at 10 µM
# T1 construct: rat brain striatal membrane preparations for A2A AR assays; tissue Pel Freez; host or cells: rat brain striatum membranes
# T1 sequence (P30543 whole entry): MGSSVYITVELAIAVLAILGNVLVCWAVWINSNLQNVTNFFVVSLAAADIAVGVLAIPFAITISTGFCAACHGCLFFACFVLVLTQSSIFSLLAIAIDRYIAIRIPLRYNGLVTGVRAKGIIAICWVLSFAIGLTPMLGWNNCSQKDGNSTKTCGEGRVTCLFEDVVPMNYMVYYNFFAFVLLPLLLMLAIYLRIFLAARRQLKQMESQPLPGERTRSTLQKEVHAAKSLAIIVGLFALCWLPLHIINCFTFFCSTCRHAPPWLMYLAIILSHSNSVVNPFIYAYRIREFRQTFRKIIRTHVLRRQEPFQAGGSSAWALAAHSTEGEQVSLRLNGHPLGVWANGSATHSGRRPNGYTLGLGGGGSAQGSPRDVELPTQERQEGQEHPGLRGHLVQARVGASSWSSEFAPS
# rat A1 (rA1) ARs = biological target: T2, rat A1 (rA1) ARs (Rattus norvegicus, UniProt P25099); assay: Radioligand binding [3H]CCPA, rat brain cortical membranes; settings: read-out: rA1 [3H]CCPA % inhibition ± SEM at 10 µM
# T2 construct: using rat brain cortical membrane preparations for A1; tissue Pel Freez; host or cells: rat brain cortex membranes
# T2 sequence (P25099 1-326): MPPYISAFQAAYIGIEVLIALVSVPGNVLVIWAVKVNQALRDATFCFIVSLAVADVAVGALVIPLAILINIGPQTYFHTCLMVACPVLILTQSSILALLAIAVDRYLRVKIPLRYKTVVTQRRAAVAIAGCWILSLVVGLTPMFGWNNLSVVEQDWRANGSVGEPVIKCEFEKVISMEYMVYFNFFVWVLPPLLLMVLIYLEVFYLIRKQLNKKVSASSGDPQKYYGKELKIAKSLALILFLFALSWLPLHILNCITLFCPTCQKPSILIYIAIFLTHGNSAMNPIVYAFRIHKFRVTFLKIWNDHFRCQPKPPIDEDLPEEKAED
# SH-SY5Y cells [2] = assay: Intrinsic neurotoxicity, LDH release from SH-SY5Y cells; format: cell-based; settings: 50 µM
# Procedure: as §1, §2
# Supplementary Figure 1. […]
# [3] = biological target: human dopamine D2L receptors (Homo sapiens, UniProt P14416); assay: cAMP accumulation assay in forskolin-stimulated HEK293 cells expressing hD2R; format: cell-based
# human dopamine D2L receptors, sequence (P14416 whole entry): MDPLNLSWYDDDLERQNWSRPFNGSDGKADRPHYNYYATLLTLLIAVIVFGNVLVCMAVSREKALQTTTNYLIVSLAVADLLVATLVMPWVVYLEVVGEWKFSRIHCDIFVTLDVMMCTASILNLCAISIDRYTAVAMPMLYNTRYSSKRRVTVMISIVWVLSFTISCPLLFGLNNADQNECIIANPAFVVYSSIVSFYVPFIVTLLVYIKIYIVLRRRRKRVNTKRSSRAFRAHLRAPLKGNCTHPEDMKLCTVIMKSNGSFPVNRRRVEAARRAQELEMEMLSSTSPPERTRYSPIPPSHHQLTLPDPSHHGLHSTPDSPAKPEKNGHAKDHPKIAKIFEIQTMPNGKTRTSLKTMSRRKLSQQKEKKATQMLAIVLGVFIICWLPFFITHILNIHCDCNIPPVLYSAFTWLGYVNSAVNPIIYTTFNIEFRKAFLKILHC
# Procedure: Briefly, HEK293 cells stably expressing human D2LR were incubated (30 min, room temperature) with forskolin (1 μM) and evaluated compounds in triplicates (7 appropriate concentrations in a range spanning over 6 log units) in presence of phosphodiesterase inhibitor (RO-201724, 100 μM). Subsequently, intracellular cAMP accumulation was measured with homogenous TR-FRET immunoassay, using LANCE Ultra cAMP kit (PerkinElmer) and following manufacturer’s instructions. TR-FRET signal, inversely proportional to cAMP concentration in sample, was measured using Infinite M1000 Pro microplate reader (Tecan, Männedorf, Switzerland). Sigmoidal dose–response curve fitting was performed, using GraphPad Prism™ software (version 5.01, San Diego, CA, USA).
SMILES,cytoprotective effect against H2O2-induced toxicity (LDH release) (SH-SY5Y cells [1]),dose dependence of cytoprotective effect (SH-SY5Y cells [1]),inhibition at 10 µM (rat A1 (rA1) ARs) [%],other results
"CCCn1c(=O)c2c(nc3n2CCCN3CCc2ccc(O)c(O)c2)n(CCC)c1=O [Compound 21, 9-(3,4-Dihydroxyphenethyl)-1,3-dipropyl-6,7,8,9-tetrahydropyrimido[2,1-f]purine-2,4(1H,3H)-dione]",most potent,Dose-dependent responses,–,–
"CCCCn1c(=O)c2c(nc3n2CCCN3CCc2ccc(O)c(O)c2)n(CCCC)c1=O [Compound 22, 1,3-Dibutyl-9-(3,4-dihydroxyphenethyl)-6,7,8,9-tetrahydropyrimido[2,1-f]purine-2,4(1H,3H)-dione]",most potent,–,–,–
"CCCCCCn1c(NCCc2ccc(O)c(O)c2)nc2c1c(=O)n(C)c(=O)n2C [Compound 11i, 8-((3,4-Dihydroxyphenethyl)amino)-7-hexyl-1,3-dimethyl-3,7-dihydro-1H-purine-2,6-dione]",–,–,43,inhibition at 10 µM (rat A2A (rA2A) ARs): 14%
"CCCn1c(=O)c2c(nc(NCCc3ccc(O)c(O)c3)n2CCC)n(CCC)c1=O [Compound 12, 8-((3,4-Dihydroxyphenethyl)amino)-1,3,7-tripropyl-3,7-dihydro-1H-purine-2,6-dione]",most potent,Dose-dependent responses,–,–
"CCCn1c(NCCc2ccc(O)c(O)c2)nc2c1c(=O)n(C)c(=O)n2C [Compound 11c, 8-((3,4-Dihydroxyphenethyl)amino)-1,3-dimethyl-7-propyl-3,7-dihydro-1H-purine-2,6-dione]",–,Dose-dependent responses,–,–
"Cn1c(=O)c2c(nc(NCCc3ccc(O)c(O)c3)n2CCc2ccccc2)n(C)c1=O [Compound 11k, 8-((3,4-Dihydroxyphenethyl)amino)-1,3-dimethyl-7-phenethyl-3,7-dihydro-1H-purine-2,6-dione]",–,–,46,inhibition at 10 µM (rat A2A (rA2A) ARs): 44%
"Cn1c(=O)c2c(nc3n2CCCN3CCc2ccc(O)c(O)c2)n(C)c1=O [Compound 20a, 9-(3,4-Dihydroxyphenethyl)-1,3-dimethyl-6,7,8,9-tetrahydropyrimido[2,1-f]purine-2,4(1H,3H)-dione]",–,–,43,–
"CCCCn1c(=O)c2c(nc(NCCc3ccc(O)c(O)c3)n2CCC)n(CCCC)c1=O [Compound 13, 1,3-Dibutyl-8-((3,4-dihydroxyphenethyl)amino)-7-propyl-3,7-dihydro-1H-purine-2,6-dione]",–,–,–,"intrinsic neurotoxicity to SH-SY5Y cell line (LDH release) (SH-SY5Y cells [2]): significant cytotoxicity; EC50 ([3]; forskolin-stimulated HEK293 cells, human D2L, read-out: EC50, functional cAMP assay): 11.3 µM; intrinsic activity at D2R ([3]; functional cAMP assay): agonistic properties"
